The values below are quoted from earlier work in patent US10716758B2, “Liposomal statin formulation” (Southwest Research Institute, priority 2018, dated 2020).

For one series, the system named is scar, rabbit ear model. The settings on record: relatively low doses (40 μM).
The conditions of series [1]: 20° C. to 25° C.

Turning to `CC[C@H](C)C(=O)O[C@H]1C[C@@H](C)C=C2C=C[C@H](C)[C@H](CC[C@@H]3C[C@@H](O)CC(=O)O3)[C@H]21` [lovastatin], in the series with scar, rabbit ear model, the “scar elevation index vs control” value is recorded as “reduction in the scar elevation index”. In the case of `CC[C@H](C)C(=O)O[C@H]1C[C@H](O)C=C2C=C[C@H](C)[C@H](CC[C@@H](O)C[C@@H](O)CC(=O)O)[C@H]21` [pravastatin], in series [1], the “solubility in water (in words)” value is given as “soluble in water”.
